pIC50: −log10 of the molar value.
Test system: 996289-038-R-J1-PDC spheroid viability
Assay: Anticancer human tumor 996289-038-R-J1-PDC patient-derived colon adenocarcinoma cell line growth inhibition [PI3K]
Details: spheroids with HUVEC and MSC; for pIC50: curve of first compound; for viability, T/C: stronger effect = lower value
Text: Combinatorial screen of targeted agents with the PI3K inhibitors inavolisib, alpelisib, duvelisib, and copanlisib in multi-cell type tumor spheroids
A high-throughput screen of multi-cell type tumor spheroids was designed to identify active combinations of targeted small molecules and PI3K pathway inhibitors. Complex spheroids include a stromal component modeled by human endothelial cells (HUVEC) and fibroblasts modeled by human mesenchymal stem cells (MSCs). The concentration ranges selected for each drug and investigational agent were based upon clinically achievable concentrations if the clinical Cmax of the agent was known.
Compounds. The drugs and investigational agents: inavolisib (NSC800729), alpelisib (NSC765974), duvelisib (NSC772469), copanlisib (NSC816437), ipatasertib (NSC767898), afuresertib (NSC778305), talazoparib (NSC767125), sapanisertib (NSC764658), selumetinib (NSC741078), tovorafenib (DAY101, NSC766906), vemurafenib (NSC761431), ravoxertinib (NSC781343), sotorasib (NSC818433), MRTX1133 (NSC 836407), abemaciclib (NSC 768073), palbociclib (NSC758247), venetoclax (NSC 766270), SY5609 (NSC837396), enzalutamide (NSC755605), and darolutamide (NSC825331), were obtained from the National Cancer Institute (NCI) Developmental Therapeutics Program Chemical Repository. The FDA-approved anticancer drug set is available from the NCI Developmental Therapeutics Program. […] The stock solutions were prepared in dimethyl sulfoxide (DMSO, Sigma-Aldrich, St. Louis, MO, cat. D2650) at 800-fold the tested concentration and stored at -70 degrees C prior to their use. All drugs and investigational agents were tested over a range starting from a high concentration at or near the clinical Cmax and decreasing in half-log increments. If the clinical Cmax for an agent had not been determined, the highest concentration tested was 10 microM.
Cell Culture. All cells were maintained in an incubator at 37 degrees C and 5% CO2 with 95% humidity. The PDC lines were cultured according to standard operating procedures established by the NCI PDMR (https://pdmr.cancer.gov/sops/default.htm). All PDCs were thawed and cultured in Matrigel-coated flasks prepared with a working solution of 1X Ham's F-12 nutrient mix, without supplementation (Invitrogen, Waltham, MA, cat. 11765054), 100 U/mL penicillin-streptomycin (Invitrogen, cat. 15140122), and 2.5% Matrigel (Corning Inc., Corning, NY, cat. 354248) for the first three passages. The 354836-022-R-J1-PDC, 475296-252-R-J1-PDC, and 997726-040-R-J2-PDC lines were cultured in 6A media, which includes advanced DMEM/F-12 (Thermo Fisher Scientific, cat. 12634028), 10 mM HEPES (Thermo Fisher Scientific, cat. 15630080), 1X GlutaMAX supplement (Thermo Fisher Scientific, cat. 35050061), 0.1 mg/mL primocin (InvivoGen, San Diego, CA, cat. ant-pm-2), 10% defined fetal bovine serum, heat inactivated (HyClone Laboratories Inc., Logan, UT, cat. SH30070.03HI), 50% L-WRN conditioned media (ATCC, cat. CRL-3276), 1.25 mM N-Acetyl-L-cysteine (Sigma-Aldrich, cat. A9165), 10 mM nicotinamide (Sigma-Aldrich, cat. N0636), 1X B-27 supplement (Thermo Fisher Scientific, cat. 17504044), 1X N-2 supplement (Thermo Fisher Scientific, cat. 17502048), and 10 microM Y-27632 dihydrochloride (Tocris Bioscience, Bristol, United Kingdom, cat. 1254). The 624824-186-R-J2-PDC line was cultured in 6C/Colon 1B media, which includes all 6A media components plus 50 ng/mL human EGF recombinant protein (Thermo Fisher Scientific, cat. PHG0311). […]
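Further: spheroids exposed to compounds for seven days before viability read.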
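Wherever viability, T/C is given: luminescence used as a proxy for viable cell amount; percent viability relative to DMSO vehicle control as 100%.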

For `Cn1cnc2c(F)c(Nc3ccc(Br)cc3Cl)c(C(=O)NOCCO)cc21` + COc1c(OCCCN2CCOCC2)ccc2c3n(c(=NC(=O)c4cnc(N)nc4)nc12)CCN3, the pIC50 (second compound 0.00316 µM) was 6.83, the pIC50 (second compound 0.01 µM) was 7.13 and the pIC50 (second compound 0.0316 µM) was 7.30. For the same molecule, the pIC50 (second compound 0.1 µM) was 7.90, the pIC50 (second compound 0.316 µM) was > 8.02 and the pIC50 (second compound 1 µM) was > 8.02. It also gave a viability, T/C (second compound 0.00316 µM, first compound 0.00949 µM) of 85.8%, a viability, T/C (second compound 0.00316 µM, first compound 0.03 µM) of 64.4% and a viability, T/C (second compound 0.00316 µM, first compound 0.0949 µM) of 62.2%. It also gave a viability, T/C (second compound 0.00316 µM, first compound 0.3 µM) of 38.7%, a viability, T/C (second compound 0.00316 µM, first compound 0.949 µM) of 28.2% and a viability, T/C (second compound 0.00316 µM, first compound 3 µM) of 20.1%. For the same molecule, the viability, T/C (second compound 0.01 µM, first compound 0.00949 µM) was 79.3%, the viability, T/C (second compound 0.01 µM, first compound 0.03 µM) was 65.1% and the viability, T/C (second compound 0.01 µM, first compound 0.0949 µM) was 45.5%. For the same molecule, the viability, T/C (second compound 0.01 µM, first compound 0.3 µM) was 29.7%, the viability, T/C (second compound 0.01 µM, first compound 0.949 µM) was 28.5% and the viability, T/C (second compound 0.01 µM, first compound 3 µM) was 16.8%. It also gave a viability, T/C (second compound 0.0316 µM, first compound 0.00949 µM) of 71.3%, a viability, T/C (second compound 0.0316 µM, first compound 0.03 µM) of 59.1% and a viability, T/C (second compound 0.0316 µM, first compound 0.0949 µM) of 38.2%. The viability, T/C (second compound 0.0316 µM, first compound 0.3 µM) was 28.8%, the viability, T/C (second compound 0.0316 µM, first compound 0.949 µM) was 19.2% and the viability, T/C (second compound 0.0316 µM, first compound 3 µM) was 12.5%. It also gave a viability, T/C (second compound 0.1 µM, first compound 0.00949 µM) of 54.1%, a viability, T/C (second compound 0.1 µM, first compound 0.03 µM) of 39.2% and a viability, T/C (second compound 0.1 µM, first compound 0.0949 µM) of 27.6%. For the same molecule, the viability, T/C (second compound 0.1 µM, first compound 0.3 µM) was 18.6%, the viability, T/C (second compound 0.1 µM, first compound 0.949 µM) was 12.5% and the viability, T/C (second compound 0.1 µM, first compound 3 µM) was 5.57%. For the same molecule, the viability, T/C (second compound 0.316 µM, first compound 0.00949 µM) was 34.1%, the viability, T/C (second compound 0.316 µM, first compound 0.03 µM) was 24.5% and the viability, T/C (second compound 0.316 µM, first compound 0.0949 µM) was 15.1%. The viability, T/C (second compound 0.316 µM, first compound 0.3 µM) was 10.6%, the viability, T/C (second compound 0.316 µM, first compound 0.949 µM) was 6.3% and the viability, T/C (second compound 0.316 µM, first compound 3 µM) was 4.03%. For the same molecule, the viability, T/C (second compound 1 µM, first compound 0.00949 µM) was 15.6%, the viability, T/C (second compound 1 µM, first compound 0.03 µM) was 14.3% and the viability, T/C (second compound 1 µM, first compound 0.0949 µM) was 9.32%. For the same molecule, the viability, T/C (second compound 1 µM, first compound 0.3 µM) was 5.03%, the viability, T/C (second compound 1 µM, first compound 0.949 µM) was 4.84% and the viability, T/C (second compound 1 µM, first compound 3 µM) was 2.93%.

From PubChem BioAssay AID1963965 (Molecular Pharmacology Branch, DTP, NCI, 2024)
